Test results reported in US9000018B2, “Thiazolidin-4-one-derivatives” (Actelion Pharmaceuticals Ltd., priority 2003, dated 2015).
Marks after values point to notes of the source that are not given here.

Test system: circulating lymphocytes in whole blood
Assay: number of circulating lymphocytes in whole blood of rats
Format: in vivo, normotensive male Wistar rats
Conditions: compared to group treated with vehicle only
Procedure: Normotensive male Wistar rats are housed in climate-controlled conditions with a 12-hour light/dark cycle, and have free access to normal rat chow and drinking water. Blood (0.5 mL) is collected by retro-orbital sampling before drug administration, and 3 and 6 h thereafter. Blood cell count is measured in whole blood using a Beckman-Coulter Synchron CX5 Pro cytometer. Statistical analysis of lymphocyte counts are performed by analysis of variance (ANOVA) using Statistica (StatSoft) and the Student-Newman-Keuls procedure for multiple comparisons. Thus, compounds of the invention decrease the number of circulating lymphocytes in whole blood when compared to pre-drug values.

[1] = 6 h after oral administration of 10 mg/kg to normotensive male Wistar rats

Row | Structure (SMILES) | Lymphocyte counts [1] [%] | Lymphocyte counts (at 3 mg/kg p.o., 6 h after oral administration to normotensive male Wistar rats)
1 | CCC/N=C1\S/C(=C\c2ccc(OC[C@H](O)CO)c(Cl)c2)C(=O)N1c1ccccc1C [Example 85, 5-[3-chloro-4-((2R)-2,3-dihydroxy-propoxy)-benz-(Z)-ylidene]-2-[(Z)-propylimino]-3-o-tolyl-thiazolidin-4-one] | −63 | –
2 | Cc1ccccc1N1C(=O)/C(=C/c2ccc(OCC(O)CO)c(Cl)c2)S/C1=N\C(C)C (racemic) [Example 24, rac-5-[3-chloro-4-(2,3-dihydroxy-propoxy)-benz[Z]ylidene]-2-([Z]-isopropylimino)-3-o-tolyl-thiazolidin-4-one] | −54 | –
3 | CCC/N=C1\S/C(=C\c2ccc(OCCO)c(Cl)c2)C(=O)N1c1cccc(C)c1C [Example 91, 5-[3-chloro-4-(2-hydroxy-ethoxy)-benz[Z]ylidene]-3-(2,3-dimethyl-phenyl)-2-([Z]-propylimino)-thiazolidin-4-one] | −35 | –
4 | CCC/N=C1\S/C(=C\c2ccc(OCCO)c(Cl)c2)C(=O)N1c1ccccc1 [Example 75, 5-[3-chloro-4-(2-hydroxy-ethoxy)-benz[Z]ylidene]-3-phenyl-2-([Z]-propylimino)-thiazolidin-4-one] | −47 | –
5 | CC(C)/N=C1\S/C(=C\c2ccc(OCCO)cc2)C(=O)N1c1ccccc1 [Example 4, 5-[4-(2-Hydroxy-ethoxy)-benz-(Z)-ylidene]-2-[(Z)-isopropylimino]-3-phenyl-thiazolidin-4-one] | −32 | –
6 | CCC/N=C1\S/C(=C\c2ccc(OC[C@@H](O)CO)c(Cl)c2)C(=O)N1c1ccccc1C [Example 86, (S)-5-[3-chloro-4-(2,3-dihydroxy-propoxy)-benz[Z]ylidene]-2-([Z]-propylimino)-3-o-tolyl-thiazolidin-4-one] | – | −30* %
7 | CCC/N=C1\S/C(=C\c2ccc(OCC(O)CO)c(Cl)c2)C(=O)N1c1ccccc1C (racemic) [Example 84, rac-5-[3-chloro-4-(2,3-dihydroxy-propoxy)-benz[Z]ylidene]-2-([Z]-propylimino)-3-o-tolyl-thiazolidin-4-one] | −68 | –
8 | CC/N=C1\S/C(=C\c2ccc(OCCO)c(Cl)c2)C(=O)N1c1ccccc1 [Example 103, 5-[3-chloro-4-(2-hydroxy-ethoxy)-benz[Z]ylidene]-2-([Z]-Ethylimino)-3-phenyl-thiazolidin-4-one] | −47 | –
9 | CCC/N=C1\S/C(=C\c2ccc(OCC(O)CO)c(Cl)c2)C(=O)N1c1cccc(C)c1C (racemic) [Example 95, rac-5-[3-chloro-4-(2,3-dihydroxy-propoxy)-benz[Z]ylidene]-3-(2,3-dimethyl-phenyl)-2-([Z]-propylimino)-thiazolidin-4-one] | −53 | –
10 | CC/N=C1\S/C(=C\c2ccc(OCCO)c(Cl)c2)C(=O)N1c1cccc(C)c1C [Example 110, 5-[3-chloro-4-(2-hydroxy-ethoxy)-benz[Z]ylidene]-3-(2,3-dimethyl-phenyl)-2-([Z]-ethylimino)-thiazolidin-4-one] | −30 | –
11 | CCC/N=C1\S/C(=C\c2ccc(OCC(O)CO)c(Cl)c2)C(=O)N1c1ccccc1 (racemic) [Example 77, rac-5-[3-chloro-4-(2,3-dihydroxy-propoxy)-benz[Z]ylidene]-3-phenyl-2-([Z]-propylimino)-thiazolidin-4-one] | −55 | –
12 | CCC/N=C1\S/C(=C\c2ccc(OCCO)c(C)c2)C(=O)N1c1ccccc1 [Example 76, 5-[4-(2-hydroxy-ethoxy)-3-methyl-benz[Z]ylidene]-3-phenyl-2-([Z]-propylimino)-thiazolidin-4-one] | −58 | –
13 | Cc1cccc(N2C(=O)/C(=C/c3ccc(OCC(O)CO)c(Cl)c3)S/C2=N\C(C)C)c1C (racemic) [Example 46, rac-5-[3-chloro-4-(2,3-dihydroxy-propoxy)-benz[Z]ylidene]-3-(2,3-dimethyl-phenyl)-2-([Z]-isopropylimino)-thiazolidin-4-one] | −37 | –
14 | CC(C)/N=C1\S/C(=C\c2ccc(OCCO)c(Cl)c2)C(=O)N1C(C)C [Example 130, 5-[3-chloro-4-(2-hydroxy-ethoxy)-benz[Z]ylidene]-3-isopropyl-2-([Z]-isopropylimino)-thiazolidin-4-one] | −26 | –
15 | CC(C)/N=C1\S/C(=C\c2ccc(OCCO)c(Cl)c2)C(=O)N1c1ccccc1 [Example 7, 5-[3-Chloro-4-(2-hydroxy-ethoxy)-benz-(Z)-ylidene]-2-[(Z)-isopropylimino]-3-phenyl-thiazolidin-4-one] | −67 | –
16 | CN(C)N=C1SC(=Cc2ccc(OCCO)cc2)C(=O)N1c1ccccc1 [Example 100, 2-(dimethyl-hydrazono)-5-[4-(2-hydroxy-ethoxy)-benz[Z]ylidene]-3-phenyl-thiazolidin-4-one] | −53 | –
17 | Cc1cccc(N2C(=O)/C(=C/c3ccc(OCCO)c(Cl)c3)S/C2=N\C(C)C)c1C [Example 42, 5-[3-chloro-4-(2-hydroxy-ethoxy)-benz[Z]ylidene]-3-(2,3-dimethyl-phenyl)-2-([Z]-isopropylimino)-thiazolidin-4-one] | −23 | –
